Assay results reported in patent US20110064662A1, “KIT FOR PRODUCING MOLECULAR PROBE FOR PET SCREENING FOR DRUG DISCOVERY” (RIKEN, priority 2007, published 2011).

Assays:
[1] = Proportion of brain SUV to blood SUV in rats, with and without brain blood perfusion; format: in vivo; conditions: for uptake by the parenchyma of the brain: concluded from pre- and post-perfusion data; for amount of tracer after the brain blood perfusion: physiological saline perfused via the heart before decapitation
Procedure: As in Example 18, P-glycoprotein inhibitor cyclosporin A (CsA) was administered into rats in an amount of 25 mg/kg body weight of a rat 30 minutes prior to the administration of tracers. Thirty minutes after the administration of tracers, the rats were decapitated to remove the brains and measure the radioactivity. The figures show the results obtained from control rats into which no CsA was administered and from those into which CsA was administered in an amount of 25 mg/kg, expressed as a proportion of the brain SUV to the blood SUV. The SUV value in the present experiment is the average of the results obtained from two rats and expressed using a standard deviation. 10-O-p-[^11C]methylbenzylginkgolide B ([^11C]-29) (^11C-labeled compound) produced in Example 16 and [^18F]-30 were used as the tracers. […] FIG. 11 is from the measurement of radioactivity in the brain removed after decapitation, and FIG. 12 is from the measurement of radioactivity performed after flushing the blood out of the brain by infusing/perfusing physiological saline into the heart of a rat before decapitation.

[2] = tested on: P-glycoprotein; test: Experiment for determining P-glycoprotein substrates (brain radioactivity in rats with or without cyclosporin A pre-administration); format: in vivo; conditions: for amount of tracer present in the brain upon pre-administration of CsA: CsA in different doses 30 min before tracer, brain removed 30 min after tracer
Procedure: P-glycoprotein inhibitor cyclosporin A (CsA) was administered into rats 30 minutes prior to the administration of tracers. Thirty minutes after the administration of tracers, the rats were decapitated to remove the brains and measure the radioactivity. […] An SUV value in the present experiment is the average of the results obtained from 4 rats and expressed using a standard deviation.

[3] = PET analysis of the brain of the monkey after intravenous injection of labeled compound; format: in vivo; conditions: for stability against metabolism: concluded from monkey brain PET images; for initial brain uptake for 10 minutes after administration / elimination from the brain: monkey; for initial brain uptake for 10 minutes after administration: i.v. about 900 MBq, PET of brain, compared with conventional labeled compound
Procedure: The N-(2,5-dimethoxybenzyl)-N-[5-fluoro(4-[^11-C]methylphenoxy)-phenyl]acetamide ([^11C]-9) (^11C-labeled compound) produced in Example 9 was diluted with a mixed solution of physiological saline (3.6 ml), propylene glycol (0.3 ml), ethanol (0.1 ml), and a Tween 80 surfactant (0.1 ml), a radioactivity of about 900 MBq was introduced into a monkey through an intravenous injection, and a PET analysis of the brain of the monkey was performed using an animal PET scanner SHR-7700 manufactured by Hamamatsu Photonics K.K. ([^11C]-20).
[^11C]DAA1106 represented by the formula below was administered into a monkey in the same manner as in Example 10 except that [^11C]DAA1106 was used in place of the N-(2,5-dimethoxybenzyl)-N-[5-fluoro(4-[^11C]methylphenoxy)phenyl]acetamide ([^11C]-9) (labeled compound) produced in Example 9. The time radioactivity curves thereof are shown also in FIG. 3. […] [^11C]DAA1106 was separately produced according to WO 99/06353.
The 1-(2-chloro-5-methylphenyl)-N-methyl-(1-methylpropyl)-3-isoquinolinecarboxamide ([^11C]-20) (^11C-labeled compound) produced in Example 11 was diluted with a mixed solution of physiological saline (3.6 ml), propylene glycol (0.3 ml), ethanol (0.1 ml), and a Tween 80 surfactant (0.1 ml), a radioactivity of about 900 MBq was introduced into a monkey through an intravenous injection, and a PET analysis of [^11C]-20 in the brain of the monkey was performed using an animal PET scanner SHR-7700 manufactured by Hamamatsu Photonics K.K. The results are shown in FIG. 2.
[^11C]PK11195 represented by the formula below was administered into a monkey in the same manner as in Example 12 except that [^11C]PK11195 was used in place of the 1-(2-chloro-5-methylphenyl)-N-methyl-(1-methylpropyl)-3-isoquinolinecarbox amide ([^11C]-20) (labeled compound) produced in Example 11. […] [^11C]PK11195 was separately produced according to R. Camsonne et al., Journal of Labeled Compounds and Radiopharmaceuticals, 1984, 11, pp. 985-991.
The 10-O-p-[^11C]methylbenzylginkgolide B ([^11C]-29) (^11C-labeled compound) produced in Example 16 was diluted with a mixed solution of physiological saline (1.8 ml), propylene glycol (0.15 ml), ethanol (0.05 ml), a Tween 80 surfactant (0.05 ml), and intralipos (2.05 ml), a radioactivity of about 900 MBq was introduced into a monkey through an intravenous injection, and a PET analysis of [^11C]-29 in the brain of the monkey was performed using an animal PET scanner SHR-7700 manufactured by Hamamatsu Photonics K.K. The results are shown in FIG. 8.
[^18F]-30 represented by the formula below was administered into a monkey in the same manner as in Example 17 except that [^18F]-30 was used in place of the 10-O-p-[^11C]-methylbenzylginkgolide B ([^11C]-29) (^11C-labeled compound) produced in Example 16. […] [^18F]-30 was separately produced according to Makiko Suehiro, et al., J. Labelled Compd. Radiopharm., 47, pp. 485-491, 2004.

[4] = target: PAF receptor (Homo sapiens, UniProt P25105); conditions: more strongly than natural ginkgolide B; cited from earlier work
Sequence of PAF receptor (P25105 whole entry): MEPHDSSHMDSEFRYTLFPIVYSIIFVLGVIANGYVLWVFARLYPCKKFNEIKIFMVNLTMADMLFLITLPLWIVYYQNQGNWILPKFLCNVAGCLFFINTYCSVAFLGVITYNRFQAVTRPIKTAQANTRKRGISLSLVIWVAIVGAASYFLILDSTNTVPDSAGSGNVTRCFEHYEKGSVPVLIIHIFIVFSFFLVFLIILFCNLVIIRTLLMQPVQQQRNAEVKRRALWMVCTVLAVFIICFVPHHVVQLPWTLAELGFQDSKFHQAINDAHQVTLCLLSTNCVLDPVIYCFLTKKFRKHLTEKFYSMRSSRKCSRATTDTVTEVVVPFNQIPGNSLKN

[5] = time radioactivity curves after i.v. administration

Molecule	stability against metabolism [3]	initial brain uptake for 10 minutes after administration [3]	elimination from the brain [3, 5]	brain uptake ([3]; monkey brain PET)	further results
10-O-p-[^11C]methylbenzylginkgolide B [[^11C]-29]	stable against metabolism	increased initial brain uptake	promptly eliminated from the brain with time		uptake by the parenchyma of the brain [1]: taken up by the parenchyma of the brain; amount of tracer after the brain blood perfusion ([1]; control and CsA 25 mg/kg): did not change; amount of tracer present in the brain upon pre-administration of CsA [2]: changed in a volume-dependent manner; SUV values relative to those of [^11C]verapamil ([2]; brain SUV, [^11C]verapamil as standard reference): about 30%
COc1ccc(OC)c(CN(C(C)=O)c2cc(F)ccc2Oc2ccc([11CH3])cc2)c1 [[^11C]-9, N-(2,5-dimethoxybenzyl)-N-[5-fluoro-(4[^11C]methylphenoxy)phenyl]acetamide]	stable against metabolism	greater initial brain uptake		greater than that of the conventional labeled compound	
CCC(C)N(C)C(=O)c1cc2ccccc2c(-c2cc([11CH3])ccc2Cl)n1 (centres unmarked) [[^11C]-20, 1-(2-chloro-5-[^11C]methylphenyl)-N-methyl-(1-methylpropyl)-3-isoquinolinecarboxamide]	stable against metabolism	greater initial brain uptake	promptly eliminated from the brain with time	greater than that of the conventional labeled compound	
COc1ccc(O[11CH3])c(CN(C(C)=O)c2cc(F)ccc2Oc2ccccc2)c1 [[^11C]DAA1106, reference compound]					elimination from the brain ([3]; in vivo, iv): barely eliminated from the brain
CCC(C)N([11CH3])C(=O)c1cc2ccccc2c(-c2ccccc2Cl)n1 (centres unmarked) [[^11C]PK11195, reference compound]			barely eliminated from the brain		
C[C@@H]1C(=O)O[C@H]2[C@H](O)C34C5OC(=O)[C@@]3(OC3OC(=O)C(O)C34[C@H](C(C)(C)C)[C@@H]5[18F])[C@@]12O (some centres unmarked) [[^18F]-30, reference compound]				barely taken up by the brain	proportion of the brain SUV to the blood SUV ([1]; 30 min after tracer, control and CsA 25 mg/kg): ≤ 0.04; uptake by the parenchyma of the brain [1]: not taken up by the parenchyma of the brain; amount of tracer after the brain blood perfusion ([1]; control and CsA 25 mg/kg): washed away by the brain blood perfusion; amount of tracer present in the brain upon pre-administration of CsA [2]: did not change; blood-brain barrier penetration ([3]; monkey brain PET): little blood-brain barrier penetration
Cc1ccc(COC2C(=O)OC3O[C@@]45C(=O)OC6C[C@@H](C(C)(C)C)C32C64[C@@H](O)[C@@H]2OC(=O)[C@@H](C)[C@@]25O)cc1 (some centres unmarked) [compound 29, 10-O-p-methylbenzylginkgolide B]					binding with a PAF receptor relative to natural ginkgolide B [4]: 10 times
